One test deals with human CB1 receptor (Homo sapiens (Human), UniProt P21554). The experiment in a line: Membrane competition binding assay with [3H]-CP 55,940, CHO-CB1 membranes. As to conditions: CHO-CB1 cellular membranes, 2.5 nM [3H]-CP 55,940; read-out: Competition Binding Assay CB1 Receptor Ki. The text has this: The cDNA clones for human HA-tagged CB1 and CB2 receptors were obtained from the Missouri S&T cDNA Resource Center (www.cdna.org) in cloning vector pcDNA3.1+. The vector containing the human CB2 receptor was transfected directly into CHO-KI cells obtained from ATCC. The HA-tagged human CB1 receptor sequence was subcloned into the pef4-V5-HisA vector with Kpn1 and Pme1 restriction enzymes and subsequently transfected into CHO-K1 cells. Cells were clonally isolated by limited dilution and screened by immunocytochemistry for expression of the HA tag.
human CB1 receptor, sequence (P21554 whole entry): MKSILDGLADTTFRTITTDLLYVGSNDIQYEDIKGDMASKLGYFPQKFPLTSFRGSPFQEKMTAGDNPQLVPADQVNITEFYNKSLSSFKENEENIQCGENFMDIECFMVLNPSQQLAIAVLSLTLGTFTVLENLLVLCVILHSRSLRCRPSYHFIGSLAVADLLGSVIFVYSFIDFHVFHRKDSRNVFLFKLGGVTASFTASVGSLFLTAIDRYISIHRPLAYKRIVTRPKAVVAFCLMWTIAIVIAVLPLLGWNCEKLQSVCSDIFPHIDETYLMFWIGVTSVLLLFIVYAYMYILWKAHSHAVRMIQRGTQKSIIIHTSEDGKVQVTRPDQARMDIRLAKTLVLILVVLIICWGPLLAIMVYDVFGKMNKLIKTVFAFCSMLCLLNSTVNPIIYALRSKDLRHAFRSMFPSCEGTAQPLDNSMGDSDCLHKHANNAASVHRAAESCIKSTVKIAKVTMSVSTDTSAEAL
Cells were maintained in DMEM/F12 media supplemented with 10% fetal bovine serum (FBS), 100 units/ml penicillin and 100 μg/ml streptomycin and 2 mM L-glutamine. Transfected cell lines were maintained with additional 150 ug/ml zeocin for pEF HA-CB1 transfected cells and 500 ug/ml G-418 for pcDNA HA-CB2 transfected cells (all reagents obtained from Invitrogen).
Cells were grown to confluence and harvested in ice cold phosphate buffered saline with 5 mM EDTA. Cells were spun at 200×g for 10 min and frozen at −80° C. until required. Cell pellets were thawed with cold 0.32 M sucrose and homogenised with a glass homogeniser. The homogenate was spun at 1000×g for 10 min at 4° C. and the supernatant spun in a Sorvall ultracentrifuge for 30 min at 100,000×g. The pellet was then washed in ice cold water and re-spun twice more. The final pellet was resuspended in 50 mM Tris pH 7.5, 0.5 mM EDTA. Protein concentration was determined using the Dc protein assay kit (BioRad, Hercules, Calif., USA).
Membranes (5-10 μg) were incubated with radioligand and a range of concentrations of test compounds in binding buffer (50 mM Tris pH 7.4, 5 mM MgCl2, 1 mM EDTA) with 0.5% (w/v) bovine serum albumin (BSA) (ICP Bio, New Zealand), at 30° C. for 60 min. Stock solutions of putative cannabinoid ligands were prepared in dimethyl sulfoxide to a concentration of 10 mM. Six different final concentrations of compounds were used ranging from 50 μM to 0.1 nM. […] Assays were terminated by addition of 2 ml ice cold binding buffer and filtration through GF/C filters (Whatman) pre-soaked in cold binding buffer, followed by two washes in the same buffer.
Radioactivity was determined by incubation of filters with Irgasafe scintillation fluid (PerkinElmer) and scintillation counting in a Wallac Trilux using Microbeta Trilux software. Data was analysed using the Prism 4.02 programme (GraphPad Software, San Deigo, Calif., USA).
All data was analyzed using Prism 4.02. For binding data the Ki was determined from IC50 values derived from competition binding data fitted with one site competition non-linear regression analysis by Prism 4.02 using the Kd values reported above.

The subject of another test is closed head injury (CHI). Briefly: Closed head injury (CHI) model, neurological severity score, Sabra mice. Type of test: in vivo. As to conditions: for most effective dose (recovery, ΔNSS): Sabra mice, i.p. 1 h after CHI, followed 21 days. The protocol:
The study was conducted according to the guidelines of the Institutional Animal Care Committee of the Hebrew University. Male Sabra mice weighing 35 to 50 g were used in all experiments. Animals were kept under controlled light conditions with a 12 h/12 h light/dark cycle. Experimental closed head injury (CHI) was induced using a modified weight drop device developed in our laboratory as described previously (Chen et al., 1996). At 1 h after CHI, the functional status of the mice was evaluated according to a set of 10 neurobehavioral tasks, namely the neurological severity score (NSS). This score is based on the ability of the mice to perform 10 different tasks (Beni-Adani et al., 2001) that evaluate their motor ability, balance, and alertness. One point is given for failing to perform a task. […] A score of 10 reflects maximal neurologic impairment, and a decrease of NSS during the recovery period indicates partial recovery of function.
Data was analyzed using the Prism 4.02 programme (GraphPad Software, San Deigo, Calif., USA). The data are expressed as mean±SEM and statistical significance was assessed with one way analysis of variance (ANOVA) followed by a Dunnett's post-hoc analysis for TNF-α levels. Nonparametric NSS values were compared between the two groups at each time point.
In this study four groups of mice were subjected to CHI (n=10/group and control n=9), after which the following agents were administered: • Group 1 (Control): Vehicle only (ethanol:cremophor:saline at ratio of 1:1:18), 1 h after CHI. • Group 2: HU-910, 0.1 mg/kg, dissolved in vehicle (1:1:18 ethanol:cremophor:saline), i.p. 1 h after CHI. • Group 3: HU-910, 1.0 mg/kg, dissolved in vehicle (1:1:18 ethanol:cremophor:saline), i.p. 1 h after CHI. • Group 4: HU-910, 10.0 mg/kg, dissolved in vehicle (1:1:18 ethanol:cremophor:saline), i.p. 1 h after CHI.
In this study four groups of mice were subjected to CHI (n=9/group), after which the following agents were administered: • Group 1 (Control): Vehicle only (ethanol:cremophor:saline at ratio of 1:1:18), 1 h after CHI. • Group 2: HU-910, 10 mg/kg, dissolved in vehicle (1:1:18 ethanol:cremophor:saline), i.p. 1 h after CHI. • Group 3: Specific CB2 antagonist SR144528 (N-[(1S)-endo-1,3,3-trimethylbicyclo[2.2.1]heptan-2-yl]-5-(4-chloro-3-methylphenyl)-1-(4-methylbenzyl)pyrazole-3 carboxamide), (see M. Rinaldi-Carmona, et al. J. Pharmacol. Exp. Ther. 284 (1998) 644-650), 1 mg/kg, i.p. 1 h after CHI. • Group 4: Specific CB2 antagonist (SR144528, N-[(1S)-endo-1,3,3-trimethylbicyclo[2.2.1]heptan-2-yl]-5-(4-chloro-3-methylphenyl)-1-(4-methylbenzy)pyrazole-3 carboxamide), 1 mg/kg, i.p. 1 h after CHI and HU-910 10 mg/kg administered 10 min after administration of antagonist.
In this study four groups of mice were subjected to CHI (n=7-8/group), after which the following agents were administered: • Group 1 (Control): Vehicle only (Dimethyl Sulfoxide (DMSO): Tween 80: Saline at ratio of 1:1:18), i.p. 1 h after CHI. • Group 2: HU-910, 10 mg/kg, dissolved in Vehicle, i.p. 1 h after CHI. • Group 3: Specific CB2 antagonist/inverse agonist AM630 (6-Iodo-2-methyl-1-[2-(4-morpholinyl)ethyl]-1H-indol-3-yl](4-methoxyphenyl)methanone) (Ross et al. 1999)), dissolved in Vehicle, 1 mg/kg, i.p. 1 h after CHI and HU-910, dissolved in Vehicle, 10 mg/kg administered 10 min after administration of antagonist/inverse agonist. • Group 4: Specific CB2 antagonist/inverse agonist AM630 (6-Iodo-2-methyl-1-[2-(4-morpholinyl)ethyl]-1H-indol-3-yl](4-methoxyphenyl)methanone), dissolved in Vehicle, 1 mg/kg, i.p. 1 h after CHI

Results on two compounds are retold here after US9365534B2, “Arylated camphenes, processes for their preparation and uses thereof” (Yissum Research Development Company of the Hebrew …, priority 2009, dated 2016).

Each structure is given as a SMILES string. pKi: −log10 of the molar value.

What is called pKi is the negative decadic logarithm of the Ki, by convention in mol/L. As for `CCCCCCC(C)(C)c1cc(OC)c(C2=C[C@H]3CC[C@]2(CO)C3(C)C)c(OC)c1` [HU-910, (1S,4R)-(2-(2,6-dimethoxy-4-(2-methyloctan-2-yl)phenyl)-7,7-dimethylbicyclo[2.2.1]hept-2-en-1-yl)methanol], the negative logarithm of the Ki (pKi) at human CB1 receptor was 5.86. Besides, the “beneficial effect on ΔNSS in the presence of AM630” value in the test with closed head injury (CHI) (AM630 1 mg/kg i.p. 1 h after CHI, HU-910 10 mg/kg 10 min later, 1 h to 28 days) is given as “reduced to a similar extent”. In addition, the “extent of recovery ΔNSS=NSS(1 h)−NSS(t)” value with closed head injury (CHI) (HU-910 10 mg/kg i.p. 1 h after CHI, days 5 and 7 post injury, vs vehicle or 0.1 and 1 mg/kg) was “significant greater recovery”. Also, the “beneficial effect on ΔNSS in the presence of SR144528” value in the test with closed head injury (CHI) (SR144528 1 mg/kg i.p. 1 h after CHI, HU-910 10 mg/kg 10 min later) is “reduced to a similar extent”. For the same compound, in the test on closed head injury (CHI), the “most effective dose (recovery, ΔNSS)” value is listed as 10 mg/kg.

On to `CCCCCCC(C)(C)c1cc(OC)c(C2=C[C@H]3CC[C@]2(C(=O)O)C3(C)C)c(OC)c1` [HU-914, (1S,4R)-2-(2,6-dimethoxy-4-(2-methyloctan-2-yl)phenyl)-7,7-dimethylbicyclo[2.2.1]hept-2-ene-1-carboxylic acid], for which the pKi at human CB1 receptor is below 4.30. Further, in the test with closed head injury (CHI) (HU-914 5 mg/kg i.p. 1 h after CHI, starting at 3 days post injury, vs vehicle or 10 and 20 mg/kg), the “recovery, Neurological Severity Score (ΔNSS)” value is given as “significant greater recovery”. Also, the “recovery ΔNSS in the presence of SR144528” value in the test with closed head injury (CHI) (SR144528 1 mg/kg i.p. 1 h after CHI, HU-914 5 mg/kg 10 min later, 24 h to 28 day) was “abolished and reduced to a similar extent as in the control group”. Also, the “most effective dose (recovery, ΔNSS)” value with closed head injury (CHI) worked out at 5 mg/kg.
